Here are results for 40 molecules from patent US20020026053A1, “Novel 3-(substituted) -2- indolinones compounds and use thereof as inhibitors of protein kinase activity” (priority 1997, published 2002).

One test has as its system PDGF-R. Kind of test: PDGF-R Assay (cellular ELISA, U1242 cells). It counts as cell-based. On the set-up: concentration or dose not given beside the values. Summed up: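 Cellular ELISA for receptor autophosphorylation: after 2 hr test-compound treatment of serum-free U1242 cells at 37°C, ligand is added for 5–10 min, cells are lysed (HNTG) and receptor captured by specific antibody. Anti-phosphotyrosine plus secondary antibody with ABTS colour read at 410/630 nm, compared with compound-free control cells.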

The target of another test is T1, EGFR (Homo sapiens, UniProt P00533).
T1 construct: endogenous in cells; host or cells: A431 cells (lysate, captured with SUMO1 anti-EGFR antibody)
T1 sequence (P00533 25-1210): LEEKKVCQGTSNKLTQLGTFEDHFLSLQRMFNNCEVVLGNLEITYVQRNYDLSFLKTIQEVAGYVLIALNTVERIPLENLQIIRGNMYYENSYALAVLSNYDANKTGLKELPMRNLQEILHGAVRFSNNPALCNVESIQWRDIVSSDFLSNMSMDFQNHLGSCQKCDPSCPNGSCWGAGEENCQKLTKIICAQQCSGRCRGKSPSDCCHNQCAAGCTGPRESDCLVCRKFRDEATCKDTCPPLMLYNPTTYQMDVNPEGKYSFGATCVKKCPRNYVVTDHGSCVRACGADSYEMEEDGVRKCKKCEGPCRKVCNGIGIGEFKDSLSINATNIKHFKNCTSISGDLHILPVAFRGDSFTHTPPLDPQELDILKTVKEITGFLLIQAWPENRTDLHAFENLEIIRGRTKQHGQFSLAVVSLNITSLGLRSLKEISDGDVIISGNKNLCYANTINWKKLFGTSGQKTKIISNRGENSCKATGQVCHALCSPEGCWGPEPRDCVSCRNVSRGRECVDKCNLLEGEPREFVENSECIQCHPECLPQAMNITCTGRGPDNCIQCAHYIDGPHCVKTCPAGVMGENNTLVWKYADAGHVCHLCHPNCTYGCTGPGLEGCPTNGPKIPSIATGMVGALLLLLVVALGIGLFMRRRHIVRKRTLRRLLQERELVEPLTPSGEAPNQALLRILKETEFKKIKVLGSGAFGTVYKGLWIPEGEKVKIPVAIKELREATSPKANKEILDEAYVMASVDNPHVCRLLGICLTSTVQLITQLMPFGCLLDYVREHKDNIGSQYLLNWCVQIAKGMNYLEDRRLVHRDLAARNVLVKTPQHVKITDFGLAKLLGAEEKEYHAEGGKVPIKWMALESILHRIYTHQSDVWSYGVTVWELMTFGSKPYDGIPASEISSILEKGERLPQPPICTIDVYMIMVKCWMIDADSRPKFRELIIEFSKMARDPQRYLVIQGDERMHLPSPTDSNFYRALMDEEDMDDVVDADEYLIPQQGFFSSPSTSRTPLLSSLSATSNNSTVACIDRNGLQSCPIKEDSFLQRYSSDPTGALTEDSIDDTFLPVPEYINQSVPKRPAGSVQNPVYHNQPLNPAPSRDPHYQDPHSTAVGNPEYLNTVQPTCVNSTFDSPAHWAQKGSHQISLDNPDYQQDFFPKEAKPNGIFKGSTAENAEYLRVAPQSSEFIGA
The test can be described thus: Biochemical EGFR Assay. On the set-up: concentration or dose not given beside the values. Summed up:
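Readout is ABTS absorbance at 410 nm after anti-phosphotyrosine and HRP-antibody detection of EGFR autophosphorylation. The kinase was immunocaptured from A431 lysate, exposed 30 min to test compound diluted 1:10 in TBS, then phosphorylated for 5 min with ATP/MnCl2 before an EDTA stop.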

On to `CCN(CC)c1ccc(C=C2C(=O)Nc3ccc(S(=O)(=O)NC)cc32)c(O)c1` [10734/D05], for which the “PDGF Kinase % Inhibition (P.119)” value in the test with PDGF-R worked out at 8.2%. Besides, on EGFR, the “Biochem EGFR % Inhibition (P.167)” value is given as −9.6%.

For the molecule `CNS(=O)(=O)c1ccc2c(c1)C(=Cc1ccc([N+](=O)[O-])cc1)C(=O)N2` [10734/D06], in the test with PDGF-R, the “PDGF Kinase % Inhibition (P.119)” value is −9.1%. The “Biochem EGFR % Inhibition (P.167)” value at EGFR was 1.3%.

On to `CNS(=O)(=O)c1ccc2c(c1)C(=Cc1cc(Br)cc(Br)c1O)C(=O)N2` [10734/D07], for which the “PDGF Kinase % Inhibition (P.119)” value in the test with PDGF-R is listed as 28.1%. The “Biochem EGFR % Inhibition (P.167)” value at EGFR is reported as 51.1%.

With `CNS(=O)(=O)c1ccc2c(c1)C(=Cc1cccc(F)c1O)C(=O)N2` [10734/D08], the “PDGF Kinase % Inhibition (P.119)” value in the test on PDGF-R came out at 2.0%. Moreover, the “Biochem EGFR % Inhibition (P.167)” value at EGFR is given as −13.7%.

Consider `CNS(=O)(=O)c1ccc2c(c1)C(=Cc1ccc(O)c(Br)c1)C(=O)N2` [10734/D09], for which the “PDGF Kinase % Inhibition (P.119)” value with PDGF-R was 42.2%. The “Biochem EGFR % Inhibition (P.167)” value at EGFR was 21.0%.

`CNS(=O)(=O)c1ccc2c(c1)C(=Cc1ccc(C(C)(C)C)cc1)C(=O)N2` [10734/D10]: the “PDGF Kinase % Inhibition (P.119)” value in the test with PDGF-R is on record as 9.9%. On EGFR, the “Biochem EGFR % Inhibition (P.167)” value is −4.4%.

On to `CNS(=O)(=O)c1ccc2c(c1)C(=Cc1ccc(Br)s1)C(=O)N2` [10734/D11], for which the “PDGF Kinase % Inhibition (P.119)” value in the test on PDGF-R is 17.0%. Besides, the “Biochem EGFR % Inhibition (P.167)” value at EGFR came to 14.6%.

On to `CCOc1cccc(C=C2C(=O)Nc3ccc(S(=O)(=O)Nc4ccc(C(F)(F)F)cc4)cc32)c1O` [10734/E02], for which the “PDGF Kinase % Inhibition (P.119)” value in the test on PDGF-R was 50.1%. Also, the “Biochem EGFR % Inhibition (P.167)” value on EGFR is reported as −10.8%.

Regarding `O=C1Nc2ccc(S(=O)(=O)Nc3ccc(C(F)(F)F)cc3)cc2C1=Cc1cc(Cl)cc(Cl)c1O` [10734/E03], in the test with PDGF-R, the “PDGF Kinase % Inhibition (P.119)” value was found to be 27.2%. The “Biochem EGFR % Inhibition (P.167)” value at EGFR came to 55.0%.

Take `O=C1Nc2ccc(S(=O)(=O)Nc3ccc(C(F)(F)F)cc3)cc2C1=Cc1cc(Cl)ccc1O` [10734/E04]: the “PDGF Kinase % Inhibition (P.119)” value in the test with PDGF-R stood at 26.7%. Moreover, the “Biochem EGFR % Inhibition (P.167)” value on EGFR is listed as −7.8%.

Take `CCN(CC)c1ccc(C=C2C(=O)Nc3ccc(S(=O)(=O)Nc4ccc(C(F)(F)F)cc4)cc32)c(O)c1` [10734/E05]: the “PDGF Kinase % Inhibition (P.119)” value with PDGF-R was determined as 17.9%. Moreover, the “Biochem EGFR % Inhibition (P.167)” value on EGFR is listed as 7.9%.

In the case of `O=C1Nc2ccc(S(=O)(=O)Nc3ccc(C(F)(F)F)cc3)cc2C1=Cc1ccc([N+](=O)[O-])cc1` [10734/E06], the “PDGF Kinase % Inhibition (P.119)” value in the test with PDGF-R is given as 13.5%. In addition, on EGFR, the “Biochem EGFR % Inhibition (P.167)” value was 6.3%.

For the molecule `O=C1Nc2ccc(S(=O)(=O)Nc3ccc(C(F)(F)F)cc3)cc2C1=Cc1cc(Br)cc(Br)c1O` [10734/E07], the “PDGF Kinase % Inhibition (P.119)” value in the test on PDGF-R stood at 8.2%. The “Biochem EGFR % Inhibition (P.167)” value at EGFR came to 82.4%.

Consider `O=C1Nc2ccc(S(=O)(=O)Nc3ccc(C(F)(F)F)cc3)cc2C1=Cc1cccc(F)c1O` [10734/E08], for which the “PDGF Kinase % Inhibition (P.119)” value with PDGF-R was 13.0%. Also, the “Biochem EGFR % Inhibition (P.167)” value at EGFR was determined as 24.2%.

On to `O=C1Nc2ccc(S(=O)(=O)Nc3ccc(C(F)(F)F)cc3)cc2C1=Cc1ccc(O)c(Br)c1` [10734/E09], for which, in the test with PDGF-R, the “PDGF Kinase % Inhibition (P.119)” value stood at 1.1%. Moreover, at EGFR, the “Biochem EGFR % Inhibition (P.167)” value is given as 73.0%.

For `CC(C)(C)c1ccc(C=C2C(=O)Nc3ccc(S(=O)(=O)Nc4ccc(C(F)(F)F)cc4)cc32)cc1` [10734/E10], in the test with PDGF-R, the “PDGF Kinase % Inhibition (P.119)” value came to 29.8%. The “Biochem EGFR % Inhibition (P.167)” value at EGFR is −5.0%.

Take `O=C1Nc2ccc(S(=O)(=O)Nc3ccc(C(F)(F)F)cc3)cc2C1=Cc1ccc(Br)s1` [10734/E11]: in the test on PDGF-R, the “PDGF Kinase % Inhibition (P.119)” value stood at 16.1%. Moreover, the “Biochem EGFR % Inhibition (P.167)” value on EGFR is reported as −8.0%.

With `CCOc1cccc(C=C2C(=O)Nc3ccc(S(=O)(=O)N4CCOCC4)cc32)c1O` [10734/F02], in the test with PDGF-R, the “PDGF Kinase % Inhibition (P.119)” value turned out to be 10.4%. The “Biochem EGFR % Inhibition (P.167)” value on EGFR was 0.7%.

As to `O=C1Nc2ccc(S(=O)(=O)N3CCOCC3)cc2C1=Cc1cc(Cl)cc(Cl)c1O` [10734/F03], the “PDGF Kinase % Inhibition (P.119)” value with PDGF-R is −24.1%. Also, the “Biochem EGFR % Inhibition (P.167)” value at EGFR amounted to 24.8%.

On to `O=C1Nc2ccc(S(=O)(=O)N3CCOCC3)cc2C1=Cc1cc(Cl)ccc1O` [10734/F04], for which the “PDGF Kinase % Inhibition (P.119)” value in the test with PDGF-R came to 25.0%. The “Biochem EGFR % Inhibition (P.167)” value on EGFR was 3.9%.

On to `CCN(CC)c1ccc(C=C2C(=O)Nc3ccc(S(=O)(=O)N4CCOCC4)cc32)c(O)c1` [10734/F05], for which, in the test with PDGF-R, the “PDGF Kinase % Inhibition (P.119)” value is reported as −1.1%. In addition, the “Biochem EGFR % Inhibition (P.167)” value at EGFR was −15.6%.

Regarding `O=C1Nc2ccc(S(=O)(=O)N3CCOCC3)cc2C1=Cc1ccc([N+](=O)[O-])cc1` [10734/F06], in the test on PDGF-R, the “PDGF Kinase % Inhibition (P.119)” value is recorded as −21.4%. Besides, at EGFR, the “Biochem EGFR % Inhibition (P.167)” value is recorded as −17.1%.

Regarding `O=C1Nc2ccc(S(=O)(=O)N3CCOCC3)cc2C1=Cc1cc(Br)cc(Br)c1O` [10734/F07], the “PDGF Kinase % Inhibition (P.119)” value in the test with PDGF-R was −5.1%. The “Biochem EGFR % Inhibition (P.167)” value at EGFR came out at 33.7%.

`O=C1Nc2ccc(S(=O)(=O)N3CCOCC3)cc2C1=Cc1cccc(F)c1O` [10734/F08]: the “PDGF Kinase % Inhibition (P.119)” value in the test on PDGF-R is on record as −6.0%. For the same molecule, on EGFR, the “Biochem EGFR % Inhibition (P.167)” value is recorded as −23.6%.

With `O=C1Nc2ccc(S(=O)(=O)N3CCOCC3)cc2C1=Cc1ccc(O)c(Br)c1` [10734/F09], the “PDGF Kinase % Inhibition (P.119)” value in the test with PDGF-R is −17.4%. The “Biochem EGFR % Inhibition (P.167)” value at EGFR came to 3.1%.

For the molecule `CC(C)(C)c1ccc(C=C2C(=O)Nc3ccc(S(=O)(=O)N4CCOCC4)cc32)cc1` [10734/F10], in the test on PDGF-R, the “PDGF Kinase % Inhibition (P.119)” value stood at 25.8%. For the same molecule, the “Biochem EGFR % Inhibition (P.167)” value at EGFR is given as −8.3%.

Regarding `O=C1Nc2ccc(S(=O)(=O)N3CCOCC3)cc2C1=Cc1ccc(Br)s1` [10734/F11], in the test with PDGF-R, the “PDGF Kinase % Inhibition (P.119)” value worked out at 16.1%. Further, on EGFR, the “Biochem EGFR % Inhibition (P.167)” value is reported as −15.6%.

Consider `CCOc1cccc(C=C2C(=O)Nc3ccc(CCCl)cc32)c1O` [10734/G02], for which the “PDGF Kinase % Inhibition (P.119)” value with PDGF-R was determined as 14.8%. The “Biochem EGFR % Inhibition (P.167)” value at EGFR was 3.4%.

For the molecule `O=C1Nc2ccc(CCCl)cc2C1=Cc1cc(Cl)cc(Cl)c1O` [10734/G03], the “PDGF Kinase % Inhibition (P.119)” value with PDGF-R is −3.8%. The “Biochem EGFR % Inhibition (P.167)” value on EGFR was 82.8%.

As to `O=C1Nc2ccc(CCCl)cc2C1=Cc1cc(Cl)ccc1O` [10734/G04], the “PDGF Kinase % Inhibition (P.119)” value in the test with PDGF-R is on record as 16.1%. The “Biochem EGFR % Inhibition (P.167)” value on EGFR stood at 62.9%.

As for `CCN(CC)c1ccc(C=C2C(=O)Nc3ccc(CCCl)cc32)c(O)c1` [10734/G05], the “PDGF Kinase % Inhibition (P.119)” value in the test on PDGF-R is given as 2.9%. Further, the “Biochem EGFR % Inhibition (P.167)” value at EGFR is given as −0.3%.

Regarding `O=C1Nc2ccc(CCCl)cc2C1=Cc1ccc([N+](=O)[O-])cc1` [10734/G06], the “PDGF Kinase % Inhibition (P.119)” value with PDGF-R is reported as −18.8%. Besides, the “Biochem EGFR % Inhibition (P.167)” value at EGFR was found to be 12.5%.

In the case of `O=C1Nc2ccc(CCCl)cc2C1=Cc1cc(Br)cc(Br)c1O` [10734/G07], the “PDGF Kinase % Inhibition (P.119)” value with PDGF-R is listed as −25.0%. For the same molecule, the “Biochem EGFR % Inhibition (P.167)” value on EGFR came out at 51.1%.

`O=C1Nc2ccc(CCCl)cc2C1=Cc1cccc(F)c1O` [10734/G08]: the “PDGF Kinase % Inhibition (P.119)” value in the test on PDGF-R came out at 0.2%. In addition, on EGFR, the “Biochem EGFR % Inhibition (P.167)” value is 33.7%.

For `O=C1Nc2ccc(CCCl)cc2C1=Cc1ccc(O)c(Br)c1` [10734/G09], in the test with PDGF-R, the “PDGF Kinase % Inhibition (P.119)” value is given as −7.7%. Besides, at EGFR, the “Biochem EGFR % Inhibition (P.167)” value is reported as 21.4%.

For the molecule `CC(C)(C)c1ccc(C=C2C(=O)Nc3ccc(CCCl)cc32)cc1` [10734/G10], in the test on PDGF-R, the “PDGF Kinase % Inhibition (P.119)” value is recorded as 9.9%. Further, at EGFR, the “Biochem EGFR % Inhibition (P.167)” value came to 3.8%.

On to `O=C1Nc2ccc(CCCl)cc2C1=Cc1ccc(Br)s1` [10734/G11], for which the “PDGF Kinase % Inhibition (P.119)” value in the test with PDGF-R was −25.4%. Besides, the “Biochem EGFR % Inhibition (P.167)” value on EGFR worked out at 4.1%.

On to `CCOc1cccc(C=C2C(=O)Nc3c(Br)cc(Br)c(C)c32)c1O` [10734/H02], for which the “PDGF Kinase % Inhibition (P.119)” value in the test on PDGF-R was −10.8%. Also, the “Biochem EGFR % Inhibition (P.167)” value at EGFR was −11.9%.

In the case of `Cc1c(Br)cc(Br)c2c1C(=Cc1cc(Cl)cc(Cl)c1O)C(=O)N2` [10734/H03], the “PDGF Kinase % Inhibition (P.119)” value with PDGF-R came out at 8.6%. The “Biochem EGFR % Inhibition (P.167)” value at EGFR was found to be 6.6%.

On to `Cc1c(Br)cc(Br)c2c1C(=Cc1cc(Cl)ccc1O)C(=O)N2` [10734/H04], for which the “PDGF Kinase % Inhibition (P.119)” value in the test on PDGF-R was determined as 6.0%. For the same molecule, the “Biochem EGFR % Inhibition (P.167)” value on EGFR was found to be 5.9%.
